In BigSolDB 2.1:

O=C(O)COc1ccc(Cl)cc1Cl
solubility (mole fraction)
Settings | 278.15 K | 283.15 K | 288.15 K | 293.15 K | 298.15 K | 303.15 K | 308.15 K | 313.15 K | 318.15 K | 323.15 K
in 2-butanone | 0.0937 | 0.103 | 0.112 | 0.123 | 0.134 | 0.144 | 0.156 | 0.169 | 0.184 | 0.201
in MTBE | 0.087 | 0.0961 | 0.106 | 0.116 | 0.126 | 0.137 | 0.148 | 0.161 | 0.175 | 0.19
in acetone | 0.107 | 0.116 | 0.127 | 0.137 | 0.15 | 0.163 | 0.176 | 0.191 | 0.205 | 0.222
in acetonitrile | 0.0178 | 0.0246 | 0.0306 | 0.0401 | 0.0499 | 0.0572 | 0.0672 | 0.078 | 0.0888 | 0.103
in ethanol | 0.0654 | 0.0797 | 0.0975 | 0.117 | 0.141 | 0.167 | 0.192 | 0.223 | 0.255 | 0.292
in ethyl acetate | 0.0548 | 0.0622 | 0.0703 | 0.0798 | 0.0894 | 0.101 | 0.113 | 0.126 | 0.14 | 0.155
in isobutanol | 0.0317 | 0.0402 | 0.0508 | 0.0627 | 0.0778 | 0.0933 | 0.112 | 0.135 | 0.161 | 0.19
in isobutyl acetate | 0.0365 | 0.0427 | 0.0494 | 0.0574 | 0.0657 | 0.0747 | 0.0846 | 0.0958 | 0.11 | 0.128
in isopropanol | 0.0424 | 0.0525 | 0.0646 | 0.0783 | 0.0942 | 0.113 | 0.132 | 0.153 | 0.176 | 0.201
in methyl acetate | 0.0602 | 0.0685 | 0.0761 | 0.0846 | 0.0976 | 0.106 | 0.119 | 0.131 | 0.144 | 0.16
in n-butanol | 0.0521 | 0.0644 | 0.079 | 0.0986 | 0.127 | 0.146 | 0.17 | 0.198 | 0.231 | 0.27
in n-butyl acetate | 0.0486 | 0.0535 | 0.0604 | 0.0678 | 0.0749 | 0.0832 | 0.0931 | 0.106 | 0.12 | 0.136
in n-pentanol | 0.0537 | 0.0701 | 0.0866 | 0.107 | 0.131 | 0.155 | 0.182 | 0.211 | 0.243 | 0.281
in n-propanol | 0.0486 | 0.0602 | 0.0731 | 0.0911 | 0.11 | 0.131 | 0.152 | 0.179 | 0.207 | 0.236
in sec-butanol | 0.043 | 0.0535 | 0.0665 | 0.0809 | 0.098 | 0.117 | 0.139 | 0.162 | 0.186 | 0.213
